For test [1], the system named is Integrin αVβ6-positive H2009 cells. The test can be described thus: flow cytometric analysis of doxorubicin uptake. It is filed as cell-based, human. The settings on record: 30 µM, 2 h, flow cytometry.
The test system is the same in test [2]. The test can be described thus: cell viability assay. It is filed as cell-based, human. The note with it: 200 nM to 5 µM, 24 h exposure, 72 h post-incubation, CellTiter Glo.
Test [3] deals with H2009 cells. The settings on record: ref personal communication, Drs. John D. Minna and Michael Peyton; cited from earlier work.
For test [4], the target named is αvβ6 (Homo sapiens, UniProt P06756+P18564). As to the kind of experiment: binding affinity for integrin αvβ6. The settings on record: data not shown.
αvβ6, sequence (P06756 31-889 limits assumed): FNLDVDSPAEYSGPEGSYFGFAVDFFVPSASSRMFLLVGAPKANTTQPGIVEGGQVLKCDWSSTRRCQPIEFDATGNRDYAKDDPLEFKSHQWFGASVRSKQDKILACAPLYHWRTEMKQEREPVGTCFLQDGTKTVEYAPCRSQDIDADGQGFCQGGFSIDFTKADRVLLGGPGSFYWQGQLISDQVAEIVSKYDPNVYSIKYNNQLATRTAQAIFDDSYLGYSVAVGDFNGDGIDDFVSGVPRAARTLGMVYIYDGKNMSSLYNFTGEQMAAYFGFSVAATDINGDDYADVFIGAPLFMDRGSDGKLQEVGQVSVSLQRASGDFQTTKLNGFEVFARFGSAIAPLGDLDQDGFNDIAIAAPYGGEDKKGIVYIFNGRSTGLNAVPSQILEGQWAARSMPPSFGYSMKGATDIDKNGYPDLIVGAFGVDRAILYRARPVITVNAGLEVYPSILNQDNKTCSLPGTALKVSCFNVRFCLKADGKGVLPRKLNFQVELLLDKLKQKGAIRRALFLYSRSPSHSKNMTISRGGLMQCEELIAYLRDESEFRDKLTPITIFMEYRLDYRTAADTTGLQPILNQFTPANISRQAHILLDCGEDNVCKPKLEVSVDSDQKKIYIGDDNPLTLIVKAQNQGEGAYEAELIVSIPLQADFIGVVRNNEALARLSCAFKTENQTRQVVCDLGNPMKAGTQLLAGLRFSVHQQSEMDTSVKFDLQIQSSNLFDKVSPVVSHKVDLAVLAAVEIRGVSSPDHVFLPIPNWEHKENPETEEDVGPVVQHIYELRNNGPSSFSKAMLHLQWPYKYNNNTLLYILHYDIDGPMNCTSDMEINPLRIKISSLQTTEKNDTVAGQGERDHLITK
αvβ6, sequence (P06756 891-1048 partner limits assumed): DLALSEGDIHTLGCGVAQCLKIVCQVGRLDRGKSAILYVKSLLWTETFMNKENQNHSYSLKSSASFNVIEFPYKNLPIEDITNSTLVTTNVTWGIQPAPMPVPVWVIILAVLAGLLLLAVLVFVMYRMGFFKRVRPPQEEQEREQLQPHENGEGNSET
αvβ6, sequence (P18564 22-788): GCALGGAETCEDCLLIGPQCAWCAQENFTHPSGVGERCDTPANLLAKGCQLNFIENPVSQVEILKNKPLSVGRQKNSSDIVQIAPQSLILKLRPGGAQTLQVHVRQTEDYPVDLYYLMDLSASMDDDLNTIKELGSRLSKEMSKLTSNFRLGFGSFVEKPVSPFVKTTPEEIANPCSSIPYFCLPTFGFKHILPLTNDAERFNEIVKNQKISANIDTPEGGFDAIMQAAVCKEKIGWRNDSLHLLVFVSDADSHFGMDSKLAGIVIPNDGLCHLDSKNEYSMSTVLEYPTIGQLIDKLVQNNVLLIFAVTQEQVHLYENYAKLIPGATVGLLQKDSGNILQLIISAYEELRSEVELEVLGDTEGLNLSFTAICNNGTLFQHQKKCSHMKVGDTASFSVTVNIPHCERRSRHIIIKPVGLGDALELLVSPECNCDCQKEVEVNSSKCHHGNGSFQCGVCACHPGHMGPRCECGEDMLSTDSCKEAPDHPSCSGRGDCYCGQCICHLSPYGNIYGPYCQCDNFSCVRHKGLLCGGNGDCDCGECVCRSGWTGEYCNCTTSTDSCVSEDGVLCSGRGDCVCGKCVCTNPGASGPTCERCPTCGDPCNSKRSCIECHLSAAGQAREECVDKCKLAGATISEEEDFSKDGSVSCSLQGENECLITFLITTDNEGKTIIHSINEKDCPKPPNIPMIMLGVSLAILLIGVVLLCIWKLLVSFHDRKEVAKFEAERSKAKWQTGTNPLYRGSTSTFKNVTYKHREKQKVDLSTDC

In the case of `COc1cccc2c1C(=O)c1c(O)c3c(c(O)c1C2=O)C[C@@](O)(C(=O)CO)C[C@@H]3O[C@H]1C[C@H](N)[C@H](O)[C@H](C)O1` [doxorubicin, reference compound], the “internalization into H2009 compared with H1299 cells” value in test [1] is given as “internalizes into both cell lines equally”. For the same compound, the “pairwise comparison of viability of H2009 and H1299 cells” value in test [2] is listed as “did not demonstrate any statistical difference”.
Regarding `CC(=O)O[C@H]1C(=O)[C@@]2(C)[C@H]([C@H](OC(=O)c3ccccc3)[C@]3(O)C[C@H](OC(=O)[C@H](O)[C@@H](NC(=O)c4ccccc4)c4ccccc4)C(C)=C1C3(C)C)[C@]1(OC(C)=O)CO[C@@H]1C[C@@H]2O` [paclitaxel], in test [3], the “IC50 relative to that of doxorubicin (fold lower)” value is reported as 40 fold.
DALRLQGTLR [scrambled sequence peptide]: in test [4], the “binding affinity for αvβ6” value was “no binding affinity”.

(Values after article PMC4053474 (Bioconjugate chemistry, 2008).)
